Data taken from ChEMBL document CHEMBL1201862, “PubChem BioAssay data set” (2004).
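All cell lines were grown in 96-well plates and treated with compound for 48 hours. GI50: concentration for 50% inhibition of growth.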 Calls of active or inactive are those of the source. Rule as the data show it: active = GI50 up to about 1.1 µM and inactive = higher.

Experiments:
Assay in all cases: inhibition of tumour cell growth, NCI panel, 48 h
DMS-273 = system: DMS-273
CAKI-1 = system: CAKI-1
IGROV-1 = system: IGROV-1
U-251 = system: U-251
SF-268 = system: SF-268
M14 = system: M14
MOLT-4 = system: MOLT-4
HCT-15 = system: HCT-15
OVCAR-4 = system: OVCAR-4
SNB-19 = system: SNB-19
SK-OV-3 = system: SK-OV-3
SK-MEL-5 = system: SK-MEL-5
TK-10 = system: TK-10
A498 = system: A498
SW-620 = system: SW-620
HCC 2998 = system: HCC 2998
SF-539 = system: SF-539
Malme-3M = system: Malme-3M
KM12 = system: KM12
MDA-N = system: MDA-N

| Compound | GI50 (DMS-273) | GI50 (CAKI-1) | GI50 (IGROV-1) | GI50 (U-251) | GI50 (SF-268) | GI50 (M14) | GI50 (MOLT-4) | GI50 (HCT-15) [µM] | GI50 (OVCAR-4) | GI50 (SNB-19) | GI50 (SK-OV-3) | GI50 (SK-MEL-5) | GI50 (TK-10) | GI50 (A498) | GI50 (SW-620) | GI50 (HCC 2998) | GI50 (SF-539) | GI50 (Malme-3M) | GI50 (KM12) | GI50 (MDA-N) |
| --- | --- | --- | --- | --- | --- | --- | --- | --- | --- | --- | --- | --- | --- | --- | --- | --- | --- | --- | --- | --- |
| CS(=O)(=O)CSCSSCS(C)(=O)=O | 25.9 µM (inactive) | 25.4 µM (inactive) | 51.8 µM (inactive) | 37.1 µM (inactive) | 26.2 µM (inactive) | 19.2 µM (inactive) | 25.5 µM (inactive) | 28 | 33 µM (inactive) | 74.3 µM (inactive) | > 100 µM (inactive) | 40.8 µM (inactive) | > 90.6 µM (inactive) | 88.9 µM (inactive) | 16.8 µM (inactive) | > 100 µM (inactive) | 22 µM (inactive) | 38.7 µM (inactive) | 44.2 µM (inactive) | – |
| Oc1ccc(O)c(-n2cccn2)c1 | 75.5 µM (inactive) | 19.1 µM (inactive) | > 100 µM (inactive) | > 100 µM (inactive) | 85.9 µM (inactive) | > 100 µM (inactive) | 21.9 µM (inactive) | > 100 | > 100 µM (inactive) | > 100 µM (inactive) | > 100 µM (inactive) | > 100 µM (inactive) | 32.1 µM (inactive) | > 100 µM (inactive) | 29.3 µM (inactive) | > 100 µM (inactive) | > 100 µM (inactive) | > 100 µM (inactive) | > 100 µM (inactive) | – |
| CCC1=C(CC2NCCc3ccccc32)CC2c3cc(OC)c(OC)cc3CCN2C1 (stereo not drawn) | 0.618 µM (active) | 0.473 µM (active) | 0.693 µM (active) | 0.55 µM (active) | 0.719 µM (active) | 0.502 µM (active) | 0.276 µM (active) | 0.552 | 0.237 µM (active) | 0.614 µM (active) | 1.07 µM (active) | 0.585 µM (active) | 0.728 µM (active) | 0.83 µM (active) | 0.384 µM (active) | 0.432 µM (active) | 0.578 µM (active) | 0.603 µM (active) | 0.443 µM (active) | 0.452 µM (active) |
| O=c1c2ccccc2n2nnc3ccc(NCCNCCO)c1c32 | 2.62 µM (inactive) | 1.84 µM (inactive) | 2.47 µM (inactive) | 0.944 µM (active) | 1.71 µM (inactive) | 1.91 µM (inactive) | 0.361 µM (active) | 2.03 | 1.71 µM (inactive) | 3.05 µM (inactive) | 2.08 µM (inactive) | 1.53 µM (inactive) | 2.79 µM (inactive) | 1.89 µM (inactive) | 0.71 µM (active) | 1.51 µM (inactive) | 3.78 µM (inactive) | 1.87 µM (inactive) | 1.66 µM (inactive) | 1.69 µM (inactive) |
